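Briefly, cells in 96-well plates were exposed to five compound concentrations for 48 h, and endpoints were estimated by linear interpolation. TGI: total growth inhibition.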
Key:
Assay in all cases: NCI tumour cell line growth inhibition, 48 h
[1] = system: UO-31 renal
[2] = system: ACHN renal
[3] = system: UACC-62 melanoma
[4] = system: SN12C renal
[5] = system: SK-MEL-28 melanoma
[6] = system: M14 melanoma
[7] = system: SK-OV-3 ovarian
[8] = system: MALME-3M melanoma
[9] = system: SNB-75 CNS
[10] = system: CCRF-CEM leukemia
[11] = system: TK-10 renal
[12] = system: A498 renal
[13] = system: HL-60(TB) leukemia
[14] = system: NCI-H460 lung
[15] = system: OVCAR-5 ovarian
[16] = system: U251 CNS
[17] = system: OVCAR-3 ovarian
[18] = system: DLD-1 colon
[19] = system: MOLT-4 leukemia
[20] = system: RXF 393 renal
[21] = system: SK-MEL-5 melanoma
[22] = system: A549 NSCLC
[23] = system: KM12 colon
[24] = system: HCT-15 colon
[25] = system: HOP-18 NSCLC
[26] = system: KM20L2 colon
[27] = system: COLO 205 colon
[28] = system: NCI-H226 lung
[29] = system: HT29 colon
[30] = system: M19-MEL melanoma
[31] = system: UACC-257 melanoma
[32] = system: CAKI-1 renal
[33] = system: DMS 114 small cell lung
[34] = system: SF-295 CNS
[35] = system: HOP-92 NSCLC
[36] = system: OVCAR-4 ovarian
[37] = system: SNB-19 CNS
[38] = system: EKVX NSCLC
[39] = system: SF-268 CNS
[40] = system: DMS 273 small cell lung
[41] = system: SNB-78 CNS
[42] = system: SW-620 colon
[43] = system: 786-0 renal
[44] = system: OVCAR-8 ovarian
[45] = system: NCI-H23 lung
[46] = system: IGROV1 ovarian
[47] = system: XF 498 CNS
[48] = system: SK-MEL-2 melanoma
[49] = system: HCC-2998 colon
[50] = system: LOX IMVI melanoma
[51] = system: RPMI-8226 leukemia
[52] = system: K-562 leukemia
[53] = system: HCT-116 colon
[54] = system: SF-539 CNS
[55] = system: SR leukemia
[56] = system: HOP-62 NSCLC
[57] = system: NCI-H522 lung
[58] = system: LXFL 529 NSCLC

Measured: TGI

COc1ccc(S(=O)(=O)N/N=C\c2cc([N+](=O)[O-])cc(I)c2O)c(OC)c1OC
63.5 µM: [25]
76.3 µM: [37]
77.6 µM: [6]
71.4 µM: [13]
72.7 µM: [36]
95.1 µM: [18]
59.1 µM: [10]
37 µM: [35]
48 µM: [47]
64.9 µM: [19]
54.6 µM: [20]
66 µM: [16]
67.4 µM: [32]
92.1 µM: [2]
64 µM: [7]
64.7 µM: [5]
92.4 µM: [50]
45.5 µM: [21]
70.1 µM: [9]
75 µM: [39]
61.4 µM: [43]
86.8 µM: [49]
71.6 µM: [51]
41.9 µM: [28]
85.2 µM: [8]
55.8 µM: [24]
75.5 µM: [31]
62.8 µM: [17]
87.2 µM: [30]
45 µM: [27]
45.4 µM: [3]
83 µM: [12]
80.7 µM: [38]
40.2 µM: [1]
64.6 µM: [33]
67.1 µM: [45]
45.3 µM: [48]
74 µM: [41]
not listed: [53] | [54] | [55] | [56] | [57] | [58]
> 100 µM: all other assays above

COc1ccc(/C=C2\C(=O)N(C(=O)c3ccc(NC(C)=O)cc3)N=C2C)cc1
not listed: [3] | [7] | [12] | [16] | [18] | [20] | [26] | [35] | [46] | [58]
> 100 µM: all other assays above

Nc1nc(SCCC/C=C/B(O)O)nc2c1ncn2C1OC(COP(=O)(O)O)C(O)C1O (stereo not drawn)
not listed: [20] | [38] | [49] | [58]
> 203 µM: all other assays above

CN(C)N=Nc1ccccc1
not listed: [3] | [15] | [31] | [41] | [50] | [56]
> 100 µM: all other assays above

Cc1cc(O)c(C(=O)O)c2c1C(=O)c1c(O)c(OCC(O)C(O)C(O)C(O)CO)c(O)c(O)c1C2=O (stereo not drawn) (tested in a mixture with another compound)
not listed: [2] | [13] | [14] | [40] | [53] | [55]
> 100 µM: all other assays above

Reference: PubChem BioAssay (NCI)
